# Laboratory results: patent publication US20230250077A1, “SULFONYLBENZAMIDE DERIVATIVE AND CONJUGATE THEREOF, PREPARATION METHOD THEREFOR AND USE THEREOF” (Jiangsu Hengrui Pharmaceuticals Co., Ltd., priority 2020, published 2023)
# Tests used:
# BCL-xL = target: T1, BCL-xL (Homo sapiens, UniProt Q07817); assay: Binding activity for BCL-xL (HTRF, biotin-labeled BIM); conditions: His-tagged BCL-xL
# T1 construct: purchased R&D 894-BX-050
# Method: In vitro BCL-xL-binding activity was tested by the following method.
# Reagents used in this experiment: His-tagged BCL-xL protein (R&D, Cat #894-BX-050); biotin-labeled BIM protein (R&D, Cat #3526/1); binding buffer (cisbio, Cat #62DLBDDF); assay buffer (cisbio, Cat #62DB1FDG); MAb anti-6His-Eu cryptate (cisbio, Cat #61HI2KLA); and affinity streptomycin linked XL665 (cisbio, Cat #611SAXLA).
# The in vitro binding assay described below can determine the binding activity of test compounds for BCL-xL.
# The test compounds were dissolved in dimethyl sulfoxide and diluted to gradient concentrations as required for the experiment, and the compounds at various concentrations formulated in dimethyl sulfoxide were subjected to a 100-fold dilution with a binding buffer. BCL-xL was diluted to the corresponding concentration with a binding buffer, and added to a white 384-well plate at 4 μL/well. Then the diluted test compound was added to the white 384-well plate at 2 μL/well. The plate was incubated at 25° C. for 1 h after the mixture was uniformly mixed. Biotin-labeled BIM protein was diluted to the corresponding concentration with a binding buffer, and added to a white 384-well plate at 4 μL/well. The plate was incubated at 25° C. for 2 h after the mixture was uniformly mixed. The MAb anti-6His-Eu cryptate and the affinity streptomycin linked XL665 were each diluted to the corresponding concentration with an assay buffer, and added to a white 384-well plate at 5 μL/well. The plate was incubated at 25° C. for 2-4 h after the mixture was uniformly mixed. The signal values were read with the HTRF program in a microplate reader (BMG Labtech, model: PHERAstar FS).
# RS4;11 cells = assay: Inhibition of proliferation of RS4;11 cells (CellTiter-Glo); format: cell-based; conditions: Homo sapiens, 72 h, 3 days, read-out: Inhibitory activity IC50 (nM) for the proliferation of RS4;11 cells
# Method: (§1) In vitro inhibitory activity for the proliferation of RS4;11 cells and NCI-H146 cells was tested by the following method.
# (§2) Reagents used in this experiment: RPMI-1640 medium (HyCLone, Cat #SH30243018); fetal bovine serum (Gibco, Cat #10099-141); pancreatin (Gibco, Cat #25200-072); Cell Titer-Glo (Promega, Cat #G7571).
# (§3) Materials used: RS4;11 cells (Nanjing Kebai Biotechnology Co., Ltd, Cat #CBP60641); and NCI-H146 cells (ATCC, Cat #HTB-173).
# (§4) The in vitro cell proliferation assay described below can determine the inhibitory activity of the test compounds for the proliferation of RS4;11 cells and NCI-H146 cells.
# (§5) RS4;11 cells (or NCI-H146 cells) were cultured in an RPMI-1640 culture medium containing 10% FBS, and were passaged for 2-3 times a week in a passage ratio of 1:3 or 1:5. During passage, the cells were transferred to a centrifuge tube, and centrifuged at 1200 rpm for 3 min. The supernatant was discarded, and fresh culture medium was added to resuspend the cells. 90 μL of cell suspension was added to a 96-well cell culture plate, wherein RS4;11 cells and NCI-H146 cells were added at a density of 2.22×10^5 cells/mL. Only 100 μL of complete medium (RPMI-1640 medium containing 10% FBS) was added to the periphery of the 96-well plate. The plate was incubated in an incubator for 24 h (37° C., 5% CO2).
# (§6) The test sample was diluted to a proper concentration gradient with dimethyl sulfoxide as required for the experiment. 5 μL of the solution of the test compound prepared in a gradient concentration was added to 95 μL of fresh culture medium and mixed uniformly, and then 10 μL of the culture medium containing the above compound was added to a cell culture plate. The cell culture plate was incubated in an incubator for 3 days (37° C., 5% CO2). 50 μL of CellTiter-Glo reagent was added into each well of the 96-well cell culture plate. The plate was let stand for 5-10 min away from the light at room temperature. The chemiluminescence signals were read by a microplate reader (BMG Labtech, model: PHERAstar FS) and the data were processed by GraphPad software.
# BCL-2 = target: T2, BCL-2 (Homo sapiens, UniProt P10415); assay: Binding activity for BCL-2 (HTRF, biotin-labeled BIM); conditions: His-tagged BCL-2, biotin-labeled BIM
# T2 construct: purchased R&D systems 827-BC-050
# T2 sequence (P10415 whole entry): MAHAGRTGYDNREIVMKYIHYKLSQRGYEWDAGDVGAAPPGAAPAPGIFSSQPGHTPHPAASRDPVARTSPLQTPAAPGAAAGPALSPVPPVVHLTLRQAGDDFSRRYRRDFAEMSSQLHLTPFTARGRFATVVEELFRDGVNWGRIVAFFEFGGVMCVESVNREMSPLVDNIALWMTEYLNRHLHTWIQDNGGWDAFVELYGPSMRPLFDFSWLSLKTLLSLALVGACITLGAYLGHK
# Method: In vitro BCL-2-binding activity was tested by the following method.
# Reagents used in this experiment: His-tagged BCL-2 protein (R&D systems, Cat #827-BC-050); biotin-labeled BIM protein (R&D, Cat #3526/1); binding buffer (cisbio, Cat #62DLBDDF); assay buffer (cisbio, Cat #62DB1FDG); MAb anti-6His-Eu cryptate (cisbio, Cat #61HI2KLA); and affinity streptomycin linked XL665 (cisbio, Cat #611SAXLA).
# The in vitro binding assay described below can determine the binding activity of test compounds for BCL-2.
# The test compounds were dissolved in dimethyl sulfoxide and diluted to gradient concentrations as required for the experiment, and the compounds at various concentrations formulated in dimethyl sulfoxide were subjected to a 100-fold dilution with a binding buffer. BCL-2 was diluted to the corresponding concentration with a binding buffer solution, and added to a white 384-well plate at 4 μL/well. Then the diluted test compound was added into the white 384-well plate at 2 μL/well. The plate was incubated at 25° C. for 1 h after the mixture was uniformly mixed. Biotin-labeled BIM protein was diluted to the corresponding concentration with a binding buffer, and added to a white 384-well plate at 4 μL/well. The plate was incubated at 25° C. for 2 h after the mixture was uniformly mixed. The MAb anti-6His-Eu cryptate and the affinity streptomycin linked XL665 were each diluted to the corresponding concentration with an assay buffer, and added to a white 384-well plate at 5 μL/well. The plate was incubated at 25° C. for 2-4 h after the mixture was uniformly mixed. The signal values were read with the HTRF program in a microplate reader (BMG Labtech, model: PHERAstar FS).
# NCI-H146 cells = assay: Inhibition of proliferation of NCI-H146 cells (CellTiter-Glo); format: cell-based; conditions: Homo sapiens, 72 h, 3 days, read-out: Inhibitory activity IC50 (nM) for the proliferation of NCI-H146 cells
# Method: as §1, §2, §3, §4, §5, §6
# T1 sequence (Q07817 whole entry): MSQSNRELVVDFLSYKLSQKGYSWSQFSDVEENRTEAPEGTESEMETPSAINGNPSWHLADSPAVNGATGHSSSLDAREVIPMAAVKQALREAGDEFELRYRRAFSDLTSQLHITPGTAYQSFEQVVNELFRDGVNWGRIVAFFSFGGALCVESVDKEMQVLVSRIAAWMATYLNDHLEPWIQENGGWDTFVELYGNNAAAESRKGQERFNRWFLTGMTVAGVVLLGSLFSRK
SMILES,Ki (BCL-xL) [pM],IC50 (RS4;11 cells) [nM],Ki (BCL-2) [pM],IC50 (NCI-H146 cells) [nM]
"O=C(NS(=O)(=O)c1ccc(N[C@@H](CSc2ccccc2)C[C@@H]2CCCN2CCO)c(S(=O)(=O)C(F)(F)F)c1)c1ccc(N2CCC([C@@H](O)c3ccccc3-c3ccc(Cl)cc3)CC2)cc1 [Example 2-9, 4-(4-((R)-(4′-chloro-[1,1′-biphenyl]-2-yl)(hydroxy)methyl)piperidin-1-yl)-N-((4-(((R)-1-((S)-1-(2-hydroxyethyl)pyrrolidin-2-yl)-3-(phenylthio)propan-2-yl)amino)-3-((trifluoromethyl)sulfonyl)phenyl)sulfonyl)benzamide]",70,1.8,20,7
"CN(CCO)CC[C@H](CSc1ccccc1)Nc1ccc(S(=O)(=O)NC(=O)c2ccc(N3CCC([C@@H](O)c4ccccc4-c4ccc(C(F)(F)F)cc4)CC3)cc2)cc1S(=O)(=O)C(F)(F)F [Example 2-10, 4-(4-((R)-hydroxy(4′-(trifluoromethyl)-[1,1′-biphenyl]-2-yl)methyl)piperidin-1-yl)-N-((4-(((R)-4-((2-hydroxyethyl)(methyl)amino)-1-(phenylthio)butan-2-yl)amino)-3-((trifluoromethyl)sulfonyl)phenyl)sulfonyl)benzamide]",70,1,30,4
